From patent publication US20150104868A1, “Methods of Maintaining and Improving Biological Cell Function and Activity” (GARGILL INCORPORATED, priority 2012, published 2015)

Experiments:
[1] = test system: HUVEC cells; conditions: ERT by itself, non-diabetic conditions; cited from earlier work
[2] = Human study in patients with Type 2 diabetes mellitus (blood glucose, insulin, C-peptide); type: in vivo; conditions: Type 2 diabetes patients, 12 g three times daily 28 days; before vs 2 hrs after 12 g intake
Description: A human study was conducted in patients with Type 2 diabetes mellitus. Patients were enrolled who were otherwise healthy patients with Type 2 diabetes mellitus as defined by fasting blood glucose >125 mg/dl or with ongoing treatment for Type 2 diabetes mellitus with the exception of insulin. […] Two hours after, blood drawings were taken again. […] After testing each variable for normality, a paired t-test was performed to determine statistical significance. For variables with a non-normal distribution, a Wilcoxon signed rank test was used. All analyses were performed using SPSS (IBM, version 19). Compliance was determined based on a count of empty sachets returned by study participants. Twenty-four subjects were enrolled and none withdrew from the study.

[3] = test system: Geotrichum candidum cells (GCC); assay: Function and activity of freeze-dried Geotrichum candidum culture; type: cell-based
Excerpt: A starter culture with Geotrichum candidum cells (GCC) was produced by ID growing GCC in a medium containing 10% glucose and other nutrients. […] The function and activity of GCC was reduced during such preservation process. […] Function and activity was expressed by measuring how many doses GCC culture with a standardized amount of activity and function can be obtained per liter fermentation broth.

[4] = test system: Mouse intestine (entero-endocrine) STC-1 cells; conditions: STC-1 cells, 10% w/v, 2 hours at 37° C.
Description: Appropriate blanks, positive controls, and standards were also included.
The lactate dehydrogenase (LDH) leakage from cells was analyzed in the supernatants as a marker for cytotoxic cell death.

In the case of `OC[C@@H](O)[C@@H](O)CO` [ERT, meso-1,2,3,4-tetrahydroxybutane], the “viability, oxidative damage, SOD activity, nitric oxide production, adhesion molecule production, transcriptome” value [1] is listed as “did not show changes”, the “blood C-peptide levels” value [2] is listed as “increase in blood C-peptide levels” and the blood glucose levels [2] is listed as “borderline significant decrease in blood glucose levels”. For the same compound, the blood insulin levels [2] was “non-significant increase in insulin levels”, the “Change in GCC cell activity and function (blank set at 100)” value (from here on “Change in GCC cell activity and function”) ([3]; 2% ERT) was 120 and the “improvement of GCC activity and function” value ([3]; 2% ERT) was 20%. The Doses/ltr fermentation broth ([3]; 2% ERT added before freeze drying) was 621 Doses/ltr, the “Change in GCC cell activity and function” value ([3]; 3% ERT) was 126 and the “improvement of GCC activity and function” value ([3]; 3% ERT) was 26%. For the same compound, the Doses/ltr fermentation broth ([3]; 3% ERT added before freeze drying) was 652 Doses/ltr, the “Change in GCC cell activity and function” value ([3]; 5% ERT) was 107 and the “increase of GCC activity and function” value ([3]; 5% ERT) was 8%. For the same compound, the Doses/ltr fermentation broth ([3]; 5% ERT added before freeze drying) was 555 Doses/ltr and the “cell death (leakage of lactate dehydrogenase)” value [4] was “cells could tolerate higher concentrations of ERT than glucose and other sugars tested”.
